Test results taken from patent publication US10343991B2, “C5, C6 substituted and/or fused oxindoles as anti-cancer agents and process for preparation thereof” (Council of Scientific & Industrial Research, priority 2016, dated 2019).

Legend:
DU-145 cells = test: SRB assay, cell viability; type: cell-based; settings: Homo sapiens, 48 h, average of three experiments, read-out: DU145 Cell Viability at 10 μM
Description: (§1) In order to determine the anticancer potency, the synthesized oxindole derivatives were evaluated for anti-cancer activity various different human cancer cell lines, Leukemic Cancer (THP1), human breast cancer (MDA-MB-231 and MCF-7), human cervix carcinoma cells (HeLa), prostate cancer (DU-145) cellS by using standard Trypan blue and SRB assays. The preliminary anticancer activity for all the synthesized compounds was done at 10 μM concentration and cell inhibition was determined. […] The experiment was repeated thrice and the average values were taken.
(§2) The assay was carried out in a 24 well flat-bottomed microtiter tissue culture plate. Cells were seeded in the plates with a density of 4×10^4 cells/well (counted by tryphan blue exclusion dye method). After 24 hours media was replaced with fresh media and then compounds were added to obtain a concentrations of 10 μM. Sunitinib was used as positive control. Plates were incubated for 48 h at 37° C. in a humidified incubator with 5% CO2. After 48 hours without removing the cell culture supernatant, 500 μl of cold 10% (wt/vol) TCA was added to each well, and the plates were incubated at 4° C. for 1 h. The plates were washed for four times with water then rinsed with water several times to remove TCA, serum, proteins and excess water was removed using paper towels and air dried. 100 μl of 0.4% (wt/vol in 1% acetic acid) SRB solution was added to each well. Plates were left at room temperature for 30 min and then the plates were quickly rinsed for four times with 1% (vol/vol) acetic acid to remove unbound dye were and then air dried until no moisture was visible. 100 μl of 10 mM Tris base solution (pH 10.5) was added to each well and shake for 5 min to solubilize the protein-bound dye. Optical density was measured at 564 nm in a micro plate reader.

MCF-7 cells = test: SRB assay, cell viability; type: cell-based; settings: Homo sapiens, MCF7, 48 h, average of three experiments
Description: as §1, §2

HeLa cells = test: SRB assay, cell viability; type: cell-based; settings: Homo sapiens, 48 h, average of three experiments
Description: as §1, §2

MDA-MB-231 cells = test: SRB assay, cell viability; type: cell-based; settings: Homo sapiens, 48 h, average of three experiments
Description: as §1, §2

THP1 cells [1] = test: Trypan blue assay, cell viability; type: cell-based; settings: Homo sapiens, THP-1, 48 h, average of three experiments
Description: as §1
The assay was carried out in a 24 well flat-bottomed microtiter tissue culture plate. THP1 cells were seeded in the plates with a density of 4×10^4 cells/well (counted by tryphan blue exclusion dye method). Compounds were added to obtain a concentration of 10 μM. Sunitinib was used as positive control. Plates were incubated for 48 h at 37° C. in a humidified incubator with 5% CO2. At the end of the treatments, cells (THP1) were resuspended in 0.4% trypan blue and percent cell viability was counted using countess cell chamber (Life Technologies).

THP1 cells [2] = type: cell-based, human; settings: THP-1 cells, 10 μM, 24 h; untreated cells 68.3%
Description: To understand the anticancer activity mechanism of the synthesized oxindole derivatives, we analysed the cell cycle alteration phase distribution of the cells by treating THP1 cells with oxindole derivatives at 10 μM, for 24 h and analyzed by flow cytometry. Treatment of THP-1 cells with compounds 2b, 3d, 3e, 3g, 3h, 3i, 3j and 3k caused an accumulation of 98.5%, 94.3%, 96.7%, 97%, 98%, 83%, 93.5%, 98.1% cells in the G0/G1 phase respectively as compared to 68.3% in untreated cells and 99.5% in Sunitinib treated cells. […] (Fig. x and Table .y).
The THP1 cells were treated with the active compounds at […] and incubated for about 24 h. The cells were fixed in ice cold ethanol solvent at 4° C. for about 30 minutes. The ethanol was removed and cells were treated with 1 mL of DNA staining solution (2 mg of RNase and 0.2 mg of propidium iodide (PI)) for 30 minutes. The DNA content was measured by flow cytometry (BD FACS C anto II). Results were analysed using FCS express 4 plus software.

[3] = test system: VEGF tyrosin kinase (VEGFR); test: VEGFR activity, phosphotyrosine (PY) cell-based ELISA; settings: 10 μM, 60 min pretreatment, VEGF stimulation
Description: Briefly, cells at 60-75% confluence were placed in serum-free medium for 18 h to reduce the background of phosphorylation. Cells were then pretreated for 60 min with 2b, 3d, 3e, 3g, 3h, 3i, 3j and 3k compounds at 10 μM concentration followed by an optimized dose of purified growth factor (VEGF). The reaction was stopped, and cells were permeabilized by quickly removing the media from the cells and adding ice-cold Tris-buffered saline (TBS) containing 0.05% triton X-100, protease inhibitor cocktail, and tyrosine phosphatase inhibitor cocktail (both from Sigma Chemical). The TBS solution was then removed, and cells were fixed to the plate by heat and further incubation in 70% ethanol. Cells were further exposed to block (TBS with 1% BSA) and washed, and then a horseradish peroxidase (HRP)-conjugated phosphotyrosine antibody was added. The antibody was removed; cells were washed again and exposed to an enhanced luminol ELISA substrate, and light emission was measured using a plate reader. The known RTK-specific kinase inhibitor (Sunitinib) was used as positive control for kinase inhibition.

Structure (SMILES) | melting point | viability at 10 µM (DU-145 cells) | viability at 10 µM (MCF-7 cells) | viability at 10 µM (HeLa cells) | viability at 10 µM (MDA-MB-231 cells) | viability at 10 µM (THP1 cells [1]) | accumulation of cells in the G0/G1 phase (THP1 cells [2]) | inhibitory activity of VEGF tyrosin kinase activity [3]
COc1cccc(C(C#CCOCc2ccccc2)c2cc3c(cc2O)NC(=O)/C3=C\c2[nH]c(C)cc2C)c1OC (stereo not shown) [Compound 3f] | 181 to 183 °C | 62.1% | 33.1% | 39.4% | 37.7% | 30.2% |  | 
COc1cccc(-c2c(COCc3ccccc3)oc3cc4c(cc23)/C(=C/c2[nH]c(C)cc2C)C(=O)N4)c1OC [Compound 3k, (Z)-2-((benzyloxy)methyl)-3-(2,3-dimethoxyphenyl)-5-((3,5-dimethyl-1H-pyrrol-2-yl)methylene)-5H-furo[3,2-f]indol-6(7H)-one] |  | 62.7% | 43.1% | 38.9% | 109% | 80.5% | 98.1% | inhibitory activity
COc1cccc(-c2c(COCc3ccccc3)oc3cc4c(cc23)/C(=C/c2sccc2C)C(=O)N4)c1OC [Compound 3l, (Z)-2-((benzyloxy)methyl)-3-(2,3-dimethoxyphenyl)-5-((3-methylthiophen-2-yl)methylene)-5H-furo[3,2-f]indol-6(7H)-one] |  | 49.7% | 79% | 52% | 111% | 106% |  | 
COc1cccc(-c2c(CCOCc3ccccc3)oc3cc4c(cc23)CC(=O)N4)c1OC [Compound 3b, 2-(2-(Benzyloxy)ethyl)-3-(2,3-dimethoxyphenyl)-5H-furo [3,2-f] indol-6(7H)-one] | 120 to 122 °C | 69.2% | 49.3% | 40.5% | 72.5% | 75.5% |  | 
CN(C)c1ccc(/C=C2\C(=O)Nc3cc4oc(Cc5ccccc5)c(-c5ccccc5)c4cc32)c2ccccc12 [Compound 3j, (Z)-2-benzyl-5-((4-(dimethylamino)naphthalen-1-yl)methylene)-3-phenyl-5H-furo[3,2-f]indol-6(7H)-one] | 241 to 245 °C | 45.2% | 37.8% | 107% | 71.3% | 83.3% | 93.5% | inhibitory activity
Cc1ccc(S(=O)(=O)n2cc(-c3c(Cc4ccccc4)oc4cc5c(cc34)/C(=C/c3[nH]c(C)cc3C)C(=O)N5)c3ccccc32)cc1 [Compound 3m, (Z)-2-benzyl-5-((3,5-dimethyl-1H-pyrrol-2-yl)methylene)-3-(1-tosyl-1H-indol-3-yl)-5H-furo[3,2-f]indol-6(7H)-one] | 174 to 176 °C | 91.7% | 71.4% | 87.6% | 75.5% | 68.2% |  | 
CCN(CC)CCNC(=O)c1c(C)[nH]c(/C=C2\C(=O)Nc3ccc(F)cc32)c1C [SUNT, Sunitinib, reference compound] |  | 35% | 34.3% | 37.1% | 39.5% | 35.2% | 99.5% | 

Continued, in another order:

melting point | Structure (SMILES) | viability at 10 µM (DU-145 cells) | viability at 10 µM (MCF-7 cells) | viability at 10 µM (HeLa cells) | viability at 10 µM (MDA-MB-231 cells) | viability at 10 µM (THP1 cells [1]) | accumulation of cells in the G0/G1 phase (THP1 cells [2]) | inhibitory activity of VEGF tyrosin kinase activity [3]
173 to 179 °C | Cc1cc(C)c(/C=C2\C(=O)Nc3cc(O)c(C(C#Cc4ccccc4)c4ccccc4)cc32)[nH]1 (stereo not shown) [Compound 3c, (Z)-3-((3,5-dimethyl-1H-pyrrol-2-yl)methylene)-5-(1,3-diphenylprop-2-yn-1-yl)-6-hydroxyindolin-2-one] | 81.3% | 49.9% | 78.2% | 74.5% | 125% |  | 
177 to 179 °C | COc1cccc(C(C#CCOCc2ccccc2)c2cc3c(cc2O)NC(=O)C3)c1OC (stereo not shown) [Compound 2b, 5-(4-(Benzyloxy)-1-(2,3-dimethoxyphenyl)but-2-ynyl)-6-hydroxyindolin-2-one] | 51.2% | 39.8% | 40.4% | 42.8% | 48.5% | 98.5% | inhibitory activity
195 to 196 °C | O=C1Cc2cc(C(C#Cc3ccccc3)c3ccccc3)c(O)cc2N1 (stereo not shown) [Compound 2a, 5-(1,3-Diphenylprop-2-yn-1-yl)-6-hydroxyindolin-2-one] | 41.7% | 39.7% | 36.6% | 71.3% | 34.5% |  | 
182 to 185 °C | Cc1ccsc1/C=C1\C(=O)Nc2cc(O)c(C(C#Cc3ccccc3)c3ccccc3)cc21 (stereo not shown) [Compound 3d, (Z)-5-(1,3-diphenylprop-2-yn-1-yl)-6-hydroxy-3-((3-methylthiophen-2-yl)methylene)indolin-2-one] | 45.5% | 30.7% | 71.3% | 35.9% | 33.3% | 94.3% | inhibitory activity
185 to 186 °C | Cc1ccc(S(=O)(=O)n2cc(C(C#Cc3ccccc3)c3cc4c(cc3O)NC(=O)/C4=C\c3[nH]c(C)cc3C)c3ccccc32)cc1 (stereo not shown) [Compound 3g, (Z)-3-((3,5-dimethyl-1H-pyrrol-2-yl)methylene)-6-hydroxy-5-(3-phenyl-1-(1-tosyl-1H-indol-3-yl)prop-2-yn-1-yl)indolin-2-one] | 94.3% | 91.5% | 88.3% | 63.8% | 104% | 97% | inhibitory activity
196 to 198 °C | O=C1Cc2cc3c(-c4ccccc4)c(Cc4ccccc4)oc3cc2N1 [Compound 3a, 2-Benzyl-3-phenyl-5H-furo[3,2-f]indol-6(7H)-one] | 21.7% | 51.1% | 27.6% | 53.8% | 53.6% |  | 
188 to 192 °C | CN(C)c1ccc(/C=C2\C(=O)Nc3cc(O)c(C(C#Cc4ccccc4)c4ccccc4)cc32)c2ccccc12 (stereo not shown) [Compound 3e, (Z)-3-((4-(dimethylamino)naphthalen-1-yl)methylene)-5-(1,3-diphenylprop-2-yn-1-yl)-6-hydroxyindolin-2-one] | 48.2% | 78.2% | 153% | 85.9% | 125% | 96.7% | inhibitory activity
